Measurements from ChEMBL document CHEMBL5032504, “Discovery and Optimization of a Novel 2H-Pyrazolo[3,4-d]pyrimidine Derivative as a Potent Irreversible Pan-Fibroblast Growth Factor Receptor Inhibitor” (J Med Chem, 2021).
Blank lines part the entries; values can stand above or below the compound they belong to.

Experiments:
NCI-H1581 [1] = experiment: cells; format: functional, cell-based; conditions: Homo sapiens, NCI-H1581, 96 h
SNU-16 [2] = experiment: cells; format: functional, cell-based; conditions: Homo sapiens, SNU-16, 96 h
SK-HEP1 = experiment: cells; format: functional, cell-based; conditions: Homo sapiens, SK-HEP1, 96 h
Huh-7 = experiment: cells; format: functional, cell-based; conditions: Homo sapiens, Huh-7, 96 h
NCI-H460 = experiment: cells; format: functional, cell-based; conditions: Homo sapiens, NCI-H460, 96 h
NCI-H1581 [3] = experiment: animal or person; format: functional; conditions: Mus musculus, NCI-H1581, po, 624 h, time 26 day, read-out: TGI
Description: Antitumor activity against human NCI-H1581 cells xenografted in BALB/c mouse assessed as tumor growth inhibition at 50 mg/kg, po administered once daily for 26 days relative to control

SNU-16 [4] = experiment: animal or person; format: functional; conditions: Mus musculus, SNU-16, po, 960 h, time 40 day, read-out: TGI
Description: Antitumor activity against human SNU-16 cells xenografted in BALB/c mouse assessed as tumor growth inhibition at 50 mg/kg, po administered once daily for 40 days relative to control

NCI-H1581 [5] = experiment: animal or person; format: functional; conditions: Mus musculus, NCI-H1581, po, 624 h, time 26 day, read-out: TGI; remark: listed apart in the source
Description: Antitumor activity against human NCI-H1581 cells xenografted in BALB/c mouse assessed as tumor growth inhibition at 100 mg/kg, po administered once daily for 26 days relative to control

SNU-16 [6] = experiment: animal or person; format: functional; conditions: Mus musculus, SNU-16, po, 960 h, time 40 day, read-out: TGI; remark: listed apart in the source
Description: Antitumor activity against human SNU-16 cells xenografted in BALB/c mouse assessed as tumor growth inhibition at 100 mg/kg, po administered once daily for 40 days relative to control

[7] = target: Voltage-gated inwardly rectifying potassium channel KCNH2 (Homo sapiens, UniProt Q12809)
Chain of Voltage-gated inwardly rectifying potassium channel KCNH2 (Q12809 whole entry): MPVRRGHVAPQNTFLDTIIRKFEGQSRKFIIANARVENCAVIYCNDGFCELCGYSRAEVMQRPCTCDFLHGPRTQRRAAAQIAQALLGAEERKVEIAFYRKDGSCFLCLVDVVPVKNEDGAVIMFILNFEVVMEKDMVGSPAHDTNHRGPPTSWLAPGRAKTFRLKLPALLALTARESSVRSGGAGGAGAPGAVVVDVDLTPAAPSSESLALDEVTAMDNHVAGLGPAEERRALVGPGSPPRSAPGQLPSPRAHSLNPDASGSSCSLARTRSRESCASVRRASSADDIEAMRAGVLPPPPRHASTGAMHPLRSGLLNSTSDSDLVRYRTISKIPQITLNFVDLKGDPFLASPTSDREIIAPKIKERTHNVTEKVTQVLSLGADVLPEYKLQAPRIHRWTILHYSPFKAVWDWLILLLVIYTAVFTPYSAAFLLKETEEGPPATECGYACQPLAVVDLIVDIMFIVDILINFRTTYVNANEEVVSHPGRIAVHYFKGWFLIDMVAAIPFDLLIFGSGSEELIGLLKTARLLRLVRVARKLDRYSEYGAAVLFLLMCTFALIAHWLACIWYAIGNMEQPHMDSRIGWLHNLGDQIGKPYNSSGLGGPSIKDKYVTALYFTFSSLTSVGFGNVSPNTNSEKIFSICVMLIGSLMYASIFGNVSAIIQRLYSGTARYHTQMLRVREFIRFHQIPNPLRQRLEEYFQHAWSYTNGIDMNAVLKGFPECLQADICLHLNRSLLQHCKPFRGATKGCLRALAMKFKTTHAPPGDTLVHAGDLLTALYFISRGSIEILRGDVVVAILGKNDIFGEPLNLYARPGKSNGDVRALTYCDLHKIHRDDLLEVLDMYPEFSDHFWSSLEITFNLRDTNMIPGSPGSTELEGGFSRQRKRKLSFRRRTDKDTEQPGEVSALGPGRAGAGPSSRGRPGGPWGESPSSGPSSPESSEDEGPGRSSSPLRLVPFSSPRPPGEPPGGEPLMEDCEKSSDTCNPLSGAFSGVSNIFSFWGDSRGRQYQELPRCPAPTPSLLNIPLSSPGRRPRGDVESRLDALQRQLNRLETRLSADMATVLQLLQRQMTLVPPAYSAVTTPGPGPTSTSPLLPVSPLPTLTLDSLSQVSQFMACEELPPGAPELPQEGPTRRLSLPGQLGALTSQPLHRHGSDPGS
Description: Binding affinity to human ERG

[8] = target: Tyrosine-protein kinase ABL1 (Homo sapiens) (UniProt P00519); conditions: dose 1000.0 nM
Description: Inhibition of ABL1 (unknown origin) at 1000 nM relative to control

[9] = target: ALK tyrosine kinase receptor (Homo sapiens) (UniProt Q9UM73); conditions: dose 1000.0 nM
Description: Inhibition of ALK (unknown origin) at 1000 nM relative to control

[10] = target: RAC-gamma serine/threonine-protein kinase (Homo sapiens) (UniProt Q9Y243); conditions: dose 1000.0 nM
Description: Inhibition of AKT3 (unknown origin) at 1000 nM relative to control

[11] = target: Mitogen-activated protein kinase kinase kinase 5 (Homo sapiens) (UniProt Q99683); conditions: dose 1000.0 nM
Description: Inhibition of ASK1 (unknown origin) at 1000 nM relative to control

[12] = target: Aurora kinase A (Homo sapiens) (UniProt O14965); conditions: dose 1000.0 nM
Description: Inhibition of AURORA kinase A (unknown origin) at 1000 nM relative to control

[13] = target: Tyrosine-protein kinase receptor UFO (Homo sapiens) (UniProt P30530); conditions: dose 1000.0 nM
Description: Inhibition of AXL (unknown origin) at 1000 nM relative to control

[14] = target: Tyrosine-protein kinase BTK (Homo sapiens) (UniProt Q06187); conditions: dose 1000.0 nM
Description: Inhibition of BTK (unknown origin) at 1000 nM relative to control

[15] = target: Serine/threonine-protein kinase B-raf (Homo sapiens) (UniProt P15056); conditions: dose 1000.0 nM
Description: Inhibition of BRAF (unknown origin) at 1000 nM relative to control

[16] = target: Calcium/calmodulin-dependent protein kinase type II subunit alpha (Homo sapiens) (UniProt Q9UQM7); conditions: dose 1000.0 nM
Description: Inhibition of CAMK2 alpha (unknown origin) at 1000 nM relative to control

[17] = target: Cyclin-dependent kinase 4 (Homo sapiens) (UniProt P11802); conditions: dose 1000.0 nM
Chain of Cyclin-dependent kinase 4 (Homo sapiens) (P11802 whole entry): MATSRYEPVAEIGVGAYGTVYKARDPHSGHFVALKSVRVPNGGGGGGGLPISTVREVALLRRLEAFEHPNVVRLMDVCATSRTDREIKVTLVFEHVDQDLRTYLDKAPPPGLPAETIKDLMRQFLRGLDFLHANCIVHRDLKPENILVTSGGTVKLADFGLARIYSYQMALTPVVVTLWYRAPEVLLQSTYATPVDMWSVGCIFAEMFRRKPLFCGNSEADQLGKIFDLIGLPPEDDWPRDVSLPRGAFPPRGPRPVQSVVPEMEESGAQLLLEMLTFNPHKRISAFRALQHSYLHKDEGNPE
Description: Inhibition of CDK4 (unknown origin) at 1000 nM relative to control

[18] = target: Casein kinase II subunit alpha (Homo sapiens) (UniProt P68400); conditions: dose 1000.0 nM
Description: Inhibition of CK2alpha1 (unknown origin) at 1000 nM relative to control

[19] = target: Serine/threonine-protein kinase Chk1 (Homo sapiens) (UniProt O14757); conditions: dose 1000.0 nM
Description: Inhibition of CHK1 (unknown origin) at 1000 nM relative to control

[20] = target: Dual specificity protein kinase CLK1 (Homo sapiens) (UniProt P49759); conditions: dose 1000.0 nM
Description: Inhibition of CLK1 (unknown origin) at 1000 nM relative to control

[21] = target: Tyrosine-protein kinase Mer (Homo sapiens) (UniProt Q12866); conditions: dose 1000.0 nM
Description: Inhibition of c-MER (unknown origin) at 1000 nM relative to control

[22] = target: Tyrosine-protein kinase CSK (Homo sapiens) (UniProt P41240); conditions: dose 1000.0 nM
Description: Inhibition of CSK (unknown origin) at 1000 nM relative to control

[23] = target: Discoidin domain-containing receptor 2 (Homo sapiens) (UniProt Q16832); conditions: dose 1000.0 nM
Description: Inhibition of DDR2 (unknown origin) at 1000 nM relative to control

[24] = target: Epidermal growth factor receptor (Homo sapiens) (UniProt P00533); conditions: dose 1000.0 nM
Description: Inhibition of EGFR (unknown origin) at 1000 nM relative to control

[25] = target: Interferon-induced, double-stranded RNA-activated protein kinase (Homo sapiens) (UniProt P19525); conditions: dose 1000.0 nM
Description: Inhibition of EIF2AK2 (unknown origin) at 1000 nM relative to control

[26] = target: Focal adhesion kinase 1 (Homo sapiens) (UniProt Q05397); conditions: dose 1000.0 nM
Description: Inhibition of FAK (unknown origin) at 1000 nM relative to control

Homo sapiens [27] = species on record: Homo sapiens; conditions: dose 1000.0 nM
Description: Inhibition of FYNA (unknown origin) at 1000 nM relative to control

[28] = target: Receptor-type tyrosine-protein kinase FLT3 (Homo sapiens) (UniProt P36888); conditions: dose 1000.0 nM
Description: Inhibition of FLT3 (unknown origin) at 1000 nM relative to control

[29] = target: Glycogen synthase kinase-3 alpha (Homo sapiens) (UniProt P49840); conditions: dose 1000.0 nM
Description: Inhibition of GSK3alpha (unknown origin) at 1000 nM relative to control

[30] = target: Glycogen synthase kinase-3 beta (Homo sapiens) (UniProt P49841); conditions: dose 1000.0 nM
Description: Inhibition of GSK3beta (unknown origin) at 1000 nM relative to control

[31] = target: Receptor tyrosine-protein kinase erbB-2 (Homo sapiens) (UniProt P04626); conditions: dose 1000.0 nM
Description: Inhibition of HER2 (unknown origin) at 1000 nM relative to control

[32] = target: Tyrosine-protein kinase ITK/TSK (Homo sapiens) (UniProt Q08881); conditions: dose 1000.0 nM
Chain of Tyrosine-protein kinase ITK/TSK (Homo sapiens) (Q08881 whole entry): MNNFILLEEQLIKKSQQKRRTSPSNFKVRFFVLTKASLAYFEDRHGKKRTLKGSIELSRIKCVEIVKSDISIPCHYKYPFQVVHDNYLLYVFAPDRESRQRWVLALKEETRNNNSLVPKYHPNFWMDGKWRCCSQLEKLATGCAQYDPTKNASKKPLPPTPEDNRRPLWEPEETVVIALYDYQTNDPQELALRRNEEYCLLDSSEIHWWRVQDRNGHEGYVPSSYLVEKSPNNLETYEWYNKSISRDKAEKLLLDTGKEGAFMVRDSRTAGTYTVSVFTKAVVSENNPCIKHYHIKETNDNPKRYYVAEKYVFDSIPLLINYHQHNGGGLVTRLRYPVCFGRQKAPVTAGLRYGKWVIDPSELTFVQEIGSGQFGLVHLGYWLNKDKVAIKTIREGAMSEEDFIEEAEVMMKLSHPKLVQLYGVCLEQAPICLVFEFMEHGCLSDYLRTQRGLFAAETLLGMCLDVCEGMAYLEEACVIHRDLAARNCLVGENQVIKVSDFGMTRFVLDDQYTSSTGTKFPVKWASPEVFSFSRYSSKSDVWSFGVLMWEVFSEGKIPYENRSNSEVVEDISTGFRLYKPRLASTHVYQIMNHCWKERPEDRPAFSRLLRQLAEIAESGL
Description: Inhibition of ITK (unknown origin) at 1000 nM relative to control

[33] = target: Interleukin-1 receptor-associated kinase 4 (Homo sapiens) (UniProt Q9NWZ3); conditions: dose 1000.0 nM
Description: Inhibition of IRAK4 (unknown origin) at 1000 nM relative to control

[34] = target: Mitogen-activated protein kinase 8 (Homo sapiens) (UniProt P45983); conditions: dose 1000.0 nM
Chain of Mitogen-activated protein kinase 8 (Homo sapiens) (P45983 whole entry): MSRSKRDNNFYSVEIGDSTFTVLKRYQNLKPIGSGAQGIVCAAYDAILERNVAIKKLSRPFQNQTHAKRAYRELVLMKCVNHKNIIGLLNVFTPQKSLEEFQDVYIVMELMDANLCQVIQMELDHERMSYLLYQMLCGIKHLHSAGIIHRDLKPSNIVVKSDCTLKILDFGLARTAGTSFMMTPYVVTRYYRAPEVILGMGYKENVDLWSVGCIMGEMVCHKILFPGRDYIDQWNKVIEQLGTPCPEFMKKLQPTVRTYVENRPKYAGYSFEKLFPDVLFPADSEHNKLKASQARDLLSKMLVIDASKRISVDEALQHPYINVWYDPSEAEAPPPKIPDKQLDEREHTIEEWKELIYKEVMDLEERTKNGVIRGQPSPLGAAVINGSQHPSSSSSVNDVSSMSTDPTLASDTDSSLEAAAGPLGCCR
Description: Inhibition of JNK1 (unknown origin) at 1000 nM relative to control

[35] = target: Tyrosine-protein kinase JAK3 (Homo sapiens) (UniProt P52333); conditions: dose 1000.0 nM
Description: Inhibition of JAK3 (unknown origin) at 1000 nM relative to control

[36] = target: Tyrosine-protein kinase Lck (Homo sapiens) (UniProt P06239); conditions: dose 1000.0 nM
Chain of Tyrosine-protein kinase Lck (Homo sapiens) (P06239 2-509 limits assumed): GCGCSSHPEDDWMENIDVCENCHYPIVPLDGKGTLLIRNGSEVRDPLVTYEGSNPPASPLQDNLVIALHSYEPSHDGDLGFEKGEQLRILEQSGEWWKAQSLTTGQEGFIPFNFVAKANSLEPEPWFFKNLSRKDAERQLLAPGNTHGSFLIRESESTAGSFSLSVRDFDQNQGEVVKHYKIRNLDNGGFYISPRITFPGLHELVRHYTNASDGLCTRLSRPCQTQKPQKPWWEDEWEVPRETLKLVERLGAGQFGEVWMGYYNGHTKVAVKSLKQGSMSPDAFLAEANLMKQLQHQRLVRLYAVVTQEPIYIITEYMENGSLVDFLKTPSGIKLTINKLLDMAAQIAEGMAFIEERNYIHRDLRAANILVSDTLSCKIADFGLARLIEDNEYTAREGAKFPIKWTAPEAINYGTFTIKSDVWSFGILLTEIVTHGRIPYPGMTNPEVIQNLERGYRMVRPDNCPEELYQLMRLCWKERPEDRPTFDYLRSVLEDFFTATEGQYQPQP
Description: Inhibition of LCK (unknown origin) at 1000 nM relative to control

[37] = target: Hepatocyte growth factor receptor (Homo sapiens) (UniProt P08581); conditions: dose 1000.0 nM
Description: Inhibition of MET (unknown origin) at 1000 nM relative to control

[38] = target: Mitogen-activated protein kinase 1 (Homo sapiens) (UniProt P28482); conditions: dose 1000.0 nM
Description: Inhibition of MAPK1 (unknown origin) at 1000 nM relative to control

[39] = target: Maternal embryonic leucine zipper kinase (Homo sapiens) (UniProt Q14680); conditions: dose 1000.0 nM
Description: Inhibition of MELK (unknown origin) at 1000 nM relative to control

[40] = target: Mitogen-activated protein kinase kinase kinase 14 (Homo sapiens) (UniProt Q99558); conditions: dose 1000.0 nM
Description: Inhibition of NIK (unknown origin) at 1000 nM relative to control

[41] = target: Serine/threonine-protein kinase Nek2 (Homo sapiens) (UniProt P51955); conditions: dose 1000.0 nM
Description: Inhibition of NEK2 (unknown origin) at 1000 nM relative to control

[42] = target: Serine/threonine-protein kinase Nek3 (Homo sapiens) (UniProt P51956); conditions: dose 1000.0 nM
Description: Inhibition of NEK3 (unknown origin) at 1000 nM relative to control

[43] = target: Serine/threonine-protein kinase PAK 3 (Homo sapiens) (UniProt O75914); conditions: dose 1000.0 nM
Description: Inhibition of PAK3 (unknown origin) at 1000 nM relative to control

Homo sapiens [44] = species on record: Homo sapiens; conditions: dose 1000.0 nM; remark: listed apart in the source
Description: Inhibition of PKA (unknown origin) at 1000 nM relative to control

[45] = target: Platelet-derived growth factor receptor alpha (Homo sapiens) (UniProt P16234); conditions: dose 1000.0 nM
Description: Inhibition of PDGFRA (unknown origin) at 1000 nM relative to control

[46] = target: Serine/threonine-protein kinase pim-1 (Homo sapiens) (UniProt P11309); conditions: dose 1000.0 nM
Chain of Serine/threonine-protein kinase pim-1 (Homo sapiens) (P11309 whole entry, looked up): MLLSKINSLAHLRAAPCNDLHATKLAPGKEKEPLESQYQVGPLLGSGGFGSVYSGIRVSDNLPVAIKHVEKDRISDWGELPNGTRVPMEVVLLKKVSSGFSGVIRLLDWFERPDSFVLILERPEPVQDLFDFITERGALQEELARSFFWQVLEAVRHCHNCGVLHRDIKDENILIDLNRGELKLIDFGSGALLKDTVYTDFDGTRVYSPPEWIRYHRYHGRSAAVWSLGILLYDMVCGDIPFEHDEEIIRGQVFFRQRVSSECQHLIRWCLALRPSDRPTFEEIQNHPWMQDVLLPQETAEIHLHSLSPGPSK
Description: Inhibition of PIM1 (unknown origin) at 1000 nM relative to control

[47] = target: Mitogen-activated protein kinase 14 (Homo sapiens) (UniProt Q16539); conditions: dose 1000.0 nM
Chain of Mitogen-activated protein kinase 14 (Homo sapiens) (Q16539 whole entry): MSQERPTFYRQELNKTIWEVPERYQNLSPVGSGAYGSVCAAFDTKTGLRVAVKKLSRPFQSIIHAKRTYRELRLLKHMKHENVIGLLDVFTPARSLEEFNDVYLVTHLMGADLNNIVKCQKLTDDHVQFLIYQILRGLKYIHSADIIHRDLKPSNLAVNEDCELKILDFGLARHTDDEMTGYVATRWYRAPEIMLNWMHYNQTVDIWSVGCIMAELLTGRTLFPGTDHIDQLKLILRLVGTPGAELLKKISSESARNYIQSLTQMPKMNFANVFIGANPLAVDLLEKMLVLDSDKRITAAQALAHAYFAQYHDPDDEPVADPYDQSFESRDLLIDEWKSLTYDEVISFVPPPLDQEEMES
Description: Inhibition of P38alpha (unknown origin) at 1000 nM relative to control

[48] = target: Proto-oncogene tyrosine-protein kinase receptor Ret (Homo sapiens) (UniProt P07949); conditions: dose 1000.0 nM
Description: Inhibition of RET (unknown origin) at 1000 nM relative to control

[49] = target: Rho-associated protein kinase 1 (Homo sapiens) (UniProt Q13464); conditions: dose 1000.0 nM
Description: Inhibition of ROCK1 (unknown origin) at 1000 nM relative to control

[50] = target: Macrophage-stimulating protein receptor (Homo sapiens) (UniProt Q04912); conditions: dose 1000.0 nM
Description: Inhibition of RON (unknown origin) at 1000 nM relative to control

[51] = target: Proto-oncogene tyrosine-protein kinase Src (Homo sapiens) (UniProt P12931); conditions: dose 1000.0 nM
Description: Inhibition of SRC (unknown origin) at 1000 nM relative to control

[52] = target: Serine/threonine-protein kinase TBK1 (Homo sapiens) (UniProt Q9UHD2); conditions: dose 1000.0 nM
Description: Inhibition of TBK1 (unknown origin) at 1000 nM relative to control

[53] = target: TGF-beta receptor type-1 (Homo sapiens) (UniProt P36897); conditions: dose 1000.0 nM
Description: Inhibition of TGFBR1 (unknown origin) at 1000 nM relative to control

[54] = target: Serine/threonine-protein kinase TAO1 (Homo sapiens) (UniProt Q7L7X3); conditions: dose 1000.0 nM
Description: Inhibition of TAOK1 (unknown origin) at 1000 nM relative to control

[55] = target: Vascular endothelial growth factor receptor 2 (Homo sapiens) (UniProt P35968); conditions: dose 1000.0 nM
Chain of Vascular endothelial growth factor receptor 2 (Homo sapiens) (P35968 whole entry): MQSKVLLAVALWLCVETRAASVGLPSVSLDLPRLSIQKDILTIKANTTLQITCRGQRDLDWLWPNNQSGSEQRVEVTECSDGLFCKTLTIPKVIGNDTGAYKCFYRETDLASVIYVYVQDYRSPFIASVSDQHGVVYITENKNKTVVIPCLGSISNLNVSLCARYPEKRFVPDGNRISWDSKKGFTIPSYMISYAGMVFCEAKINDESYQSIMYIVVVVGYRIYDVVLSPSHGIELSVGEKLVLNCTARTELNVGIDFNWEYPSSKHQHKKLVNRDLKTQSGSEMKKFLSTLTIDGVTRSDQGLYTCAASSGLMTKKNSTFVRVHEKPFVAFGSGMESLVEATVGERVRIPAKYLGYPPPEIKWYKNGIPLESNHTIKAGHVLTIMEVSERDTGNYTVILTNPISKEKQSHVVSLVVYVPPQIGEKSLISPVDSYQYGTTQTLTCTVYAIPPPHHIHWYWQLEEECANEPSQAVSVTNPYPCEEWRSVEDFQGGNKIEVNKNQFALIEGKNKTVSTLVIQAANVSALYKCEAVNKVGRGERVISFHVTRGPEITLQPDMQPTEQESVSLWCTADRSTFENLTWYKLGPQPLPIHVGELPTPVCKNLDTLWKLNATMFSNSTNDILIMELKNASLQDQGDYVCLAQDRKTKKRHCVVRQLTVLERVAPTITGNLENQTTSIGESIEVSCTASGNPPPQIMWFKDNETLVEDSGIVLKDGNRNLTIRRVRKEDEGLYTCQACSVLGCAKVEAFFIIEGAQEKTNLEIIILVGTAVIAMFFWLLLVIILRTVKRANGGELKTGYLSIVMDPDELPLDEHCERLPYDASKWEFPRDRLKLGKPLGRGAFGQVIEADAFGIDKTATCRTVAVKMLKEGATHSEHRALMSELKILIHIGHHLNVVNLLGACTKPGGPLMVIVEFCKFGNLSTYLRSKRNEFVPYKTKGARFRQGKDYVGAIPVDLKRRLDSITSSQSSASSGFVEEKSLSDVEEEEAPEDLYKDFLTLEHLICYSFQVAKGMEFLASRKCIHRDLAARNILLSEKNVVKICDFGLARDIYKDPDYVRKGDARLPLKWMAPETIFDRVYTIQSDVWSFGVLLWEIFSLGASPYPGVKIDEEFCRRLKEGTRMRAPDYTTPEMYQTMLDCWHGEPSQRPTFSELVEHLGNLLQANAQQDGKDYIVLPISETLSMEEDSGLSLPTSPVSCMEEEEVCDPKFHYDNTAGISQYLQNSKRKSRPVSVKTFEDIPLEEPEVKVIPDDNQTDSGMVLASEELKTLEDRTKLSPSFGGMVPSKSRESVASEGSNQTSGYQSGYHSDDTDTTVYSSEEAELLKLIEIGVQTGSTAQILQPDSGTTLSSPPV
Description: Inhibition of VEGFR2(unknown origin) at 1000 nM relative to control

in vivo [56] = conditions: Sprague-Dawley, rat, po, 5 mg/kg
in vivo [57] = conditions: Sprague-Dawley, rat, po, 5 mg/kg; remark: listed apart in the source
Description: Half life in Sprague-Dawley rat plasma at 5 mg/kg, po administered as single dose measured up to 8 hrs by LC/MS-MS analysis

in vivo [58] = conditions: Sprague-Dawley, rat, po, 5 mg/kg; remark: listed apart in the source
in vivo [59] = conditions: Sprague-Dawley, rat, po, 5 mg/kg; remark: listed apart in the source
Description: Clearance in Sprague-Dawley rat at 5 mg/kg, po administered as single dose measured up to 8 hrs by LC/MS-MS analysis

in vivo [60] = conditions: Sprague-Dawley, rat, po, 5 mg/kg; remark: listed apart in the source
Description: MRT in Sprague-Dawley rat at 5 mg/kg, po administered as single dose measured up to 8 hrs by LC/MS-MS analysis

in vivo [61] = conditions: Sprague-Dawley, rat, iv, 5 mg/kg
Description: Initial plasma concentration in Sprague-Dawley rat at 5 mg/kg, iv administered as single dose measured up to 8 hrs by LC/MS-MS analysis

in vivo [62] = conditions: Sprague-Dawley, rat, iv, 5 mg/kg; remark: listed apart in the source
in vivo [63] = conditions: Sprague-Dawley, rat, iv, 5 mg/kg; remark: listed apart in the source
Description: MRT in Sprague-Dawley rat at 5 mg/kg, iv administered as single dose measured up to 8 hrs by LC/MS-MS analysis

in vivo [64] = conditions: Sprague-Dawley, rat, iv, 5 mg/kg; remark: listed apart in the source

IC50 (NCI-H1581 [1]): 24 nM | IC50 (SNU-16 [2]): 6 nM | IC50 (SK-HEP1): 2780 nM | IC50 (Huh-7): > 10000 nM | IC50 (NCI-H460): > 10000 nM
Compound: COc1cc(CCc2cc(NC(=O)c3ccc(N4C[C@@H](C)N[C@@H](C)C4)cc3)n[nH]2)cc(OC)c1 [FEXAGRATINIB]

IC50 (NCI-H1581 [1]): 16 nM | IC50 (SNU-16 [2]): 6 nM | IC50 (NCI-H460): > 10000 nM | inhibition [8]: 14% | inhibition [9]: 0% | inhibition [10]: 6% | inhibition [11]: 0% | inhibition [12]: 1% | inhibition [13]: 0% | inhibition [14]: 0% | inhibition [15]: 2% | inhibition [16]: 0% | inhibition [17]: 3% | inhibition [18]: 0% | inhibition [19]: 2% | inhibition [20]: 0% | inhibition [21]: 9% | inhibition [22]: 0% | inhibition [23]: 21% | inhibition [24]: 2% | inhibition [25]: 27% | inhibition [26]: 17% | inhibition (Homo sapiens [27]): 0% | inhibition [28]: 1% | inhibition [29]: 0% | inhibition [30]: 0% | inhibition [31]: 3% | inhibition [32]: 35% | inhibition [33]: 0% | inhibition [34]: 2% | inhibition [35]: 11% | inhibition [36]: 23% | inhibition [37]: 1% | inhibition [38]: 4% | inhibition [39]: 0% | inhibition [40]: 0% | inhibition [41]: 0% | inhibition [42]: 1% | inhibition [43]: 9% | inhibition (Homo sapiens [44]): 0% | inhibition [45]: 42% | inhibition [46]: 0% | inhibition [47]: 3% | inhibition [48]: 24% | inhibition [49]: 12% | inhibition [50]: 4% | inhibition [51]: 83% | inhibition [52]: 1% | inhibition [53]: 8% | inhibition [54]: 0% | inhibition [55]: 7% | bioavailability at 8 h (in vivo [56]): 24.9% | half-life at 8 h (in vivo [57]): 16.8 min | Tmax at 8 h (in vivo [58]): 8.34 min | CL/F at 8 h (in vivo [59]): 280000 mL/min | MRT at 8 h (in vivo [60]): 19.1 min | C0 at 8 h (in vivo [61]): 0.519 ng/mL | Tmax at 8 h (in vivo [62]): 4.98 min | MRT at 8 h (in vivo [63]): 60.5 min | AUC at 8 h (in vivo [64]): 0.309 ng·h/mL
Compound: COc1cc(OC)cc(-c2nn(CCCCCN3CCN(C(=O)/C=C/C(F)(F)F)CC3)c3ncnc(N)c23)c1
inhibition in vivo at 50 mg/kg (NCI-H1581 [3]): 69.5% | inhibition in vivo at 50 mg/kg (SNU-16 [4]): 67.9% | inhibition in vivo at 100 mg/kg (NCI-H1581 [5]): 88.6% | inhibition in vivo at 100 mg/kg (SNU-16 [6]): 89.4% | IC50 [7]: 3210 nM
